# In US5461176A, “Processes for preparing bis-naphthalimides containing amino-acid derived linkers” (The Du Pont Merck Pharmaceutical Company, priority 1994, dated 1995):
# Read-outs that look alike come from different tables or passages of the source.
# Assays:
# [1] = test system: murine leukemia L1210 cells; experiment: In vitro growth inhibition of L1210 cells (MTT); type: cell-based; settings: Mus musculus
# Protocol: L1210 cells were maintained in RPMI-1640 a medium supplemented with 10% heat inactivated fetal bovine serum and […] (RPMI-L). B16 cells were maintained in RPMI-1640 medium supplemented with 15% heat inactivated fetal bovine serum and antiobiotics (RPMI-C).
# Exponentially growing murine leukemia L1210 cells (1×10^3 cells) in 0.1 mL medium were seeded on day 0 in a 96-well microtiter plate. On day 1, […] aliquot of medium containing graded concentrations of test analogs was added to the initial volume. After incubation at 37° C. in a humidified incubator for 3 days, the plates were centrifuged briefly and […] of the growth medium was removed. Cell cultures were incubated with 50 μL of 3-(4,5-dimethylthiazol-2-yl)-2,5-diphenyltetrazolium bromide (MTT; 1 mg/ml in Dulbecco's phosphate buffer saline) for 4 hours at 37° C. The resulting purple formazan precipitate was solubilized with 200 μL of 0.04N HCl in isopropyl alcohol. Absorbance was read in a Titertek Multiskan MCC scaning well spectrophotometer (Flow Laboratories) at a test wavelength of 570 nm and a reference wavelength of 630 nm.
# The ID50 values were determined by a computer program that fit all of the data (8 determinations per concentration and 12 concentrations per test analog) to the following equation:
# Y=((Am-Ao)/(1+(X/ID50)n))+Ao
# where: Am=absorbance of the control cells; Ao=absorbance of the cells in the presence of highest drug concentration; Y=observed absorbance; X=drug concentration; ID50 =dose of drug that inhibits the growth of cells to one half that of the control cells.
# LX-1 human lung tumor = experiment: In vivo human tumor xenograft model, LX-1 human lung tumor in nude mice; settings: i.v. once daily for nine consecutive days, NCI criteria
# Excerpt: (§1) The DLD-2 human colon tumor, MX-1 human mammary carcinoma, and LX-1 human lung tumor were originally obtained from a surgically removed primary colon carcinoma, breast tumor, and non-small lung carcinoma, respectively. The human tumor lines were maintained by serial passage in athymic nude mice. The MX-1 human mammary carcinoma and LX-1 human lung tumor are established tumors used by the NCI. The DLD-2, MX-1, and LX-1 tumor models have been well characterized.
# (§2) The mice used in these experiments were outbred Swiss mice or BALB/c mice bearing the nude (nu/nu) gene. On day 0 male and female mice weighing 22-30 g are inoculated with 0.2 mL of a 25% tumor mince. This mince is prepared by mincing fresh tumor tissue, grown subcutaneously in passage mice, in sterile physiological saline. Palpable tumors weighing approximately 50 mg appear in the mice within 7-10 days after inoculation. The mice are pair matched by tumor weight and sex into groups of ten each and the test compounds and vehicle control are administered intravenously (i.v.) once daily for nine consecutive days. A >20% decrease in body weight on day 5 following compound administration is considered an indication of toxicity. Tumor measurements and body weights are recorded once a week. Fifteen to 18 days after the initial injection the mice are weighed, sacrificed and the tumors excised and weighed.
# (§3) The efficacy of the test compounds is determined by the extent of tumor growth inhibition in treated versus vehicle-treated control mice. Initial tumor weights (mg) are calculated from the tumor dimensions (mm) measured from caliper measurements, using the formula for a prolate ellipsoid (mg of tumor weight=(length×width^2)/2). Net tumor weights are calculated for each of the treated groups and the vehicle-treated control group by subtracting the initial tumor weight from the final tumor weight on day 15. Results are expressed as a percentage decrease relative to the mean tumor weight for the control vehicle-treated group. [formula]
# (§4) The criteria of the National Cancer Institute (NCI) for activity in the in vivo cancer models were used. Tumor growth inhibition of 58-89% in the DLD-2 assay is considered moderate activity and inhibition of ≥90% is condidered good to excellent activity.
# [2] = test system: MX-1 human mammary carcinoma; experiment: In vivo human tumor xenograft model, MX-1 human mammary carcinoma in nude mice; settings: i.v. once daily for nine consecutive days, NCI criteria
# Excerpt: as §1, §2, §3, §4
# DLD-2 human colon tumor = experiment: In vivo human tumor xenograft model, DLD-2 human colon tumor in nude mice; settings: i.v. once daily for nine consecutive days, tumor growth inhibition, NCI criteria
# Excerpt: as §1, §2, §3, §4
Structure (SMILES),"IC50 ([1]; L1210, 72 h, read-out: ID50)",activity against LX-1 human lung tumors (LX-1 human lung tumor),activity in the MX-1 human breast tumor model [2],activity against DLD-2 human colon tumors (DLD-2 human colon tumor),"IC50 ([1]; 72 h, murine leukemia L1210 cells, 3 days incubation, MTT, read-out: ID50 (the source's name))"
C[C@H](CN1C(=O)c2cc([N+](=O)[O-])cc3cc([N+](=O)[O-])cc(c23)C1=O)NCCN[C@H](C)CN1C(=O)c2cc([N+](=O)[O-])cc3cc([N+](=O)[O-])cc(c23)C1=O [Example 32],0.057 µg/mL,,,,
"CC(CNCCNCC(C)N1C(=O)c2cccc3cc([N+](=O)[O-])cc(c23)C1=O)N1C(=O)c2cccc3cc([N+](=O)[O-])cc(c23)C1=O (racemic) [Example 2, (Racemate+meso)-2,2'-[1,2-ethanediylbis[imino(1-methyl-2,1-ethanediyl)]]-bis[5-nitro-1H-benz[de]isoquinoline-1,3(2H) -dione]methanesulfonate (1:2)]",0.062 µg/mL,good to excellent activity (inhibition of ≥90% is condidered good to excellent activity),excellent to outstanding activity,excellent to outstanding activity,
C[C@@H](CN1C(=O)c2cccc3cc([N+](=O)[O-])cc(c23)C1=O)NCCN[C@@H](C)CN1C(=O)c2cccc3cc([N+](=O)[O-])cc(c23)C1=O (relative stereo) [Example 42],< 0.001 µg/mL,,,,
C[C@H](CN1C(=O)c2cccc3c([N+](=O)[O-])ccc(c23)C1=O)NCCN[C@H](C)CN1C(=O)c2cccc3c([N+](=O)[O-])ccc(c23)C1=O [Example 31],0.19 µg/mL,,,,
CC(CN1C(=O)c2cccc3cc([N+](=O)[O-])cc(c23)C1=O)NCCNC(C)CN1C(=O)c2cccc3cc([N+](=O)[O-])cc(c23)C1=O (racemic) [Example 30],< 0.01 µg/mL,,excellent to outstanding activity,excellent to outstanding activity,
"C[C@H](CNCCNC[C@@H](C)N1C(=O)c2cccc3cc([N+](=O)[O-])cc(c23)C1=O)N1C(=O)c2cccc3cc([N+](=O)[O-])cc(c23)C1=O [Example 3, (R,R)-2,2'-[1,2-ethanediylbis[imino(1-methyl-2,1-ethanediyl)]]-bis[5-nitro-1H-benz[de]isoquinoline-1,3(2H)-dione]methanesulfonate (1:2)]",0.051 µg/mL,good to excellent activity (inhibition of ≥90% is condidered good to excellent activity),excellent to outstanding activity,excellent to outstanding activity,
"C[C@H](CNCCNC[C@H](C)N1C(=O)c2cccc3cc([N+](=O)[O-])cc(c23)C1=O)N1C(=O)c2cccc3cc([N+](=O)[O-])cc(c23)C1=O [Example 26, (Meso)-2,2'-[1,2-ethanediylbis[imino(1-methyl-2,1-ethanediyl)]]-bis[5-nitro-1H-benz[de]isoquinoline-1,3(2H)-dione]methanesulfonate (1:2)]",0.074 µg/mL,,,excellent to outstanding activity,
"C[C@@H](CN1C(=O)c2cccc3cccc(c23)C1=O)NCCN[C@@H](C)CN1C(=O)c2cccc3cccc(c23)C1=O [Example 28, (S,S)-2,2'-[1,2-ethanediylbis[imino(2-methyl-2,1-ethanediyl)]]-bis[^1 H-benz[de]isoquinoline-1,3(2H)-dione]methanesulfonate (1:2)]",,,,,0.21 µg/mL
"C[C@@H](CNCCNC[C@H](C)N1C(=O)c2cccc3cc([N+](=O)[O-])cc(c23)C1=O)N1C(=O)c2cccc3cc([N+](=O)[O-])cc(c23)C1=O [Example 1, (S,S)-2,2'-[1,2-ethanediylbis[imino(1-methyl-2,1-ethanediyl)]]-bis[5-nitro-1H-benz[de]isoquinoline-1,3(2H)-dione]methanesulfonate (1:2)]",0.047 µg/mL,,good to excellent activity (inhibition of ≥90% is condidered good to excellent activity),excellent to outstanding activity,
C[C@@H](CN[C@@H](C)CN1C(=O)c2cccc3cc([N+](=O)[O-])cc(c23)C1=O)NC[C@H](C)N1C(=O)c2cccc3cc([N+](=O)[O-])cc(c23)C1=O [Example 43],0.04 µg/mL,,,,
"CS(=O)(=O)O.CS(=O)(=O)O.C[C@H](CN1C(=O)c2cccc3cc([N+](=O)[O-])cc(c23)C1=O)NCCN[C@H](C)CN1C(=O)c2cccc3cc([N+](=O)[O-])cc(c23)C1=O [Example 29, (R,R)-2,2'-[1,2-ethanediylbis[imino(2-methyl)-2,1-ethanediyl)]-bis[5-nitro-1H-benz[de]isoquinoline-1,3(2H)-dione]-methanesulfonate (1:2)]",< 0.01 µg/mL,good to excellent activity (inhibition of ≥90% is condidered good to excellent activity),excellent to outstanding activity,good to excellent activity (inhibition of ≥90% is condidered good to excellent activity),
"C[C@@H](CN1C(=O)c2cccc3cc([N+](=O)[O-])cc(c23)C1=O)NCCN[C@@H](C)CN1C(=O)c2cccc3cc([N+](=O)[O-])cc(c23)C1=O [Example 27, (S,S)-2,2'-[1,2-ethanediylbis[imino(2-methyl-2,1-ethanediyl)]]-bis[5-nitro-1H-benz[de]isoquinoline-1,3(2H)-dione]methanesulfonate (1:2)]",0.0025 µg/mL,good to excellent activity (inhibition of ≥90% is condidered good to excellent activity),excellent to outstanding activity,excellent to outstanding activity,
